Measurements taken from ChEMBL document CHEMBL1955741, “Identification of fused bicyclic heterocycles as potent and selective 5-HT(2A) receptor antagonists for the treatment of insomnia” (Bioorg Med Chem Lett, 2012).

Legend:
[1] = biological target: 5-hydroxytryptamine receptor 2A (Homo sapiens, UniProt P28223)
Description: Displacement of [125I]-DOI from recombinant human 5HT2A receptor

[2] = biological target: T1, 5-hydroxytryptamine receptor 2C (Homo sapiens, UniProt P28335)
T1 sequence (P28335 whole entry): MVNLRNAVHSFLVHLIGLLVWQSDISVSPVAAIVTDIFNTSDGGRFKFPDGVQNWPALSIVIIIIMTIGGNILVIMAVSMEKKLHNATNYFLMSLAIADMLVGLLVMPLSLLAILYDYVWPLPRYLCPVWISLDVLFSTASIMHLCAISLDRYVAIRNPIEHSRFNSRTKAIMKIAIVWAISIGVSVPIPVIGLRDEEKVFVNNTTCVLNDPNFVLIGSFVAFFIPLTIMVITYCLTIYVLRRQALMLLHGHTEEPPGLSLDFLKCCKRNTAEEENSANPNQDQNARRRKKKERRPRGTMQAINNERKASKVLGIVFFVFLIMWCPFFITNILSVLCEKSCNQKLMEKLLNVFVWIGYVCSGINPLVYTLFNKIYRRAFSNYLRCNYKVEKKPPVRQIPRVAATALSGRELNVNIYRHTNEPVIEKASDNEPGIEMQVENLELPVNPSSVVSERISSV

Chain of 5-hydroxytryptamine receptor 2A (P28223 whole entry): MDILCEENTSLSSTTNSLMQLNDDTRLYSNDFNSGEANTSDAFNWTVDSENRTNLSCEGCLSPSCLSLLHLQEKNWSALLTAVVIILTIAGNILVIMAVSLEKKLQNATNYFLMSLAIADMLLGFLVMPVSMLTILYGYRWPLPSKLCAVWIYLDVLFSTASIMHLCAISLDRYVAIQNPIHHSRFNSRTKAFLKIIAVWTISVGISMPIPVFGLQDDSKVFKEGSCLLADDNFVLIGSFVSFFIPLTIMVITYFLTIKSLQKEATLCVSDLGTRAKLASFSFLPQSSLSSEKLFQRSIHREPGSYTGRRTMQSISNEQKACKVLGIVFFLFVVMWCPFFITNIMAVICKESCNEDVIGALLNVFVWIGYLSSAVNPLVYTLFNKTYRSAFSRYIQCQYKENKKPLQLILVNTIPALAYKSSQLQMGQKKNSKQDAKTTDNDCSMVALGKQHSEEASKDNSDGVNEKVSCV

Compound	Ki [1] [µM]	Ki [2] [µM]
O=C(c1cccc2ccnn12)N1CCN(CCc2ccc(F)cc2F)CC1	0.0004	0.194
O=C(c1cc2ccccn2n1)N1CCN(CCc2ccc(F)cc2F)CC1	0.0057	0.467
O=C(c1cccn2cc(Cl)nc12)N1CCN(CCc2ccc(F)cc2F)CC1	0.0015	0.391
O=C(c1cnn2cccnc12)N1CCN(CCc2ccc(F)cc2F)CC1	0.0038	0.91
O=C(c1cc2n(n1)CCCC2)N1CCN(CCc2ccc(F)cc2F)CC1	0.0026	0.717
O=C(c1cnn2ccccc12)N1CCN(CCc2ccc(F)cc2F)CC1	0.0018	0.246
Cc1nc2ccccn2c1C(=O)N1CCN(CCc2ccc(F)cc2F)CC1	0.0035	0.997
Nc1cccn2cc(C(=O)N3CCN(CCc4ccc(F)cc4F)CC3)nc12	0.0027	0.19
Cc1cc(C)n2ccnc2c1C(=O)N1CCN(CCc2ccc(F)cc2F)CC1	0.0036	0.153
N#Cc1cn2cccc(C(=O)N3CCN(CCc4ccc(F)cc4F)CC3)c2n1	0.0028	6.9
Nc1cccc2nc(C(=O)N3CCN(CCc4ccc(F)cc4F)CC3)cn12	0.0014	0.152
O=C(c1cn2ccccc2n1)N1CCN(CCc2ccc(F)cc2F)CC1	0.0043	0.596
